From patent publication US7754239B2, “Capsule for rapid solubilization and release of the content” (V. Mane Fils S.A., priority 2001, dated 2010)

Experiment: In vitro kinetics of release of aromatic molecules in water (test A samples)
Type: physicochemical
Conditions: water 37° C., pH 6.5, 5 mm capsule of Example 3; for Total concentration of aromatic molecules over all samples: Total 0-70 seconds
Experimental: A 5 mm capsule, the composition of which is given in Table 5, is analyzed according to test A.
The taking of various samples makes it possible to establish the in vitro kinetics of release of aromatic molecules in water at 37° C.+/−1° C. and at pH 6.5. Table 6 indicates the concentration of aromatic molecules of various samples.
It may be noted that most of the molecules are released within 40 s, at most within 70 s.

Total concentration of aromatic molecules over all samples [ppm] | concentration of aromatic molecules of sample (time 0-5 seconds) [ppm] | concentration of aromatic molecules of sample (time 5-10 seconds) [ppm] | concentration of aromatic molecules of sample (time 10-15 seconds) [ppm] | concentration of aromatic molecules of sample (time 15-20 seconds) [ppm] | concentration of aromatic molecules of sample (time 20-30 seconds) [ppm] | concentration of aromatic molecules of sample (time 30-40 seconds) [ppm] | concentration of aromatic molecules of sample (time 40-50 seconds) [ppm] | concentration of aromatic molecules of sample (time 50-60 seconds) [ppm] | concentration of aromatic molecules of sample (time 60-70 seconds) [ppm] | SMILES
399 | 47 | 67 | 63 | 90 | 62 | 24 | 24 | 16 | 6 | CC1CCC(C(C)C)C(O)C1 (centres unmarked) [Menthol]
139 | 19 | 28 | 22 | 31 | 20 | 7 | 7 | 4 | 1 | Cc1ccc(C(C)C)c(O)c1 [Thymol]
